Measurements as given in patent publication US5773226A, “Recombinant calf intestinal alkaline phosphatase” (La Jolla Cancer Research Foundation, priority 1995, dated 1998).

Key:
[1] = biological target: T1, recombinant calf intestinal alkaline phosphatase (b.IAP), expressed in CHO cells, SEQ ID NO: 10 (Bos taurus, UniProt P19111); assay: Kinetic parameters (Km, Ki for L-Phe) of recombinant calf IAP; format: biochemical, calf (bovine); settings: recombinant enzyme; read-out: K1 for L-Phe
T1 construct: codes for a peptide of 533 amino acids in length; made in house; host or cells: Chinese hamster ovary (CHO) cells, ATCC No. CCL61
Procedure: (§1) Values for Km and Kl for L-Phe were determined for the recombinant enzyme as well as for purified protein from calf intestine as described in Hummer and Millan, supra, and Wilkinson, Biochem. J. 8:324-332 (1961), incorporated herein by reference.

[2] = biological target: purified calf intestinal alkaline phosphatase (b.IAP) from natural sources (calf intestine); assay: Kinetic parameters (Km, Ki for L-Phe) of purified natural calf IAP; format: biochemical, calf (bovine); settings: purified natural enzyme; read-out: K1 for L-Phe
Procedure: as §1

T1 sequence (P19111 20-506 limits assumed): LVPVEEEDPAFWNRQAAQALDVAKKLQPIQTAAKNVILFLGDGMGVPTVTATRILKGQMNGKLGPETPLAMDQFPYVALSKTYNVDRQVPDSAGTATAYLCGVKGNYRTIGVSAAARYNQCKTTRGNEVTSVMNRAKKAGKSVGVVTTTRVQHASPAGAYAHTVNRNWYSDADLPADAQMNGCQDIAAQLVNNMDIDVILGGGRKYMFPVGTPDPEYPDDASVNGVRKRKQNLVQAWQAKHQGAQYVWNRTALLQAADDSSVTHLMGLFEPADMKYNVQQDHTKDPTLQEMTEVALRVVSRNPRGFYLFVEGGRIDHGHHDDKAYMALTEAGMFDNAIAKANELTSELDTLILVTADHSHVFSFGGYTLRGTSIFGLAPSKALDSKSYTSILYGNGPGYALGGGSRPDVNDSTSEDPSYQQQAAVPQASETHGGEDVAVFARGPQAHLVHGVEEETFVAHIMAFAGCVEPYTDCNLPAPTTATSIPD

`N[C@@H](Cc1ccccc1)C(=O)O` [L-Phe] was tested. Which Ki [1] did it give?
Its Ki is 15.2 ± 1.8 mM.

And the Ki [2]?
Its Ki is 11.2 ± 1 mM.
